{"source": "patent US10537552B2", "about": "“Substituted 5-hydroxyoxindoles and their use as analgesics and fever reducers” (CARAFE DRUG INNOVATION, LLC, priority 2015, dated 2020)", "key": {"[1]": {"test_system": "liver (acute liver toxicity)", "assay": "liver histology (pathohistological examination)", "assay_type": "in vivo, C57BL/6 mice", "description": "(§1) In all experiments, mice were fasted overnight and then allocated randomly to receive either acetaminophen or equimolar dose of 5-hydroxy-7-methyloxindole by the intragastric route. Food was returned 4 h after the treatment. The two experimental groups were:\n(§2) (a) Lower-dose group: Mice were administered acetaminophen (300 mg/kg) or 5-hydroxy-7-methyloxindole (324 mg/kg). After 7 h, the mice were sacrificed and liver and blood samples were taken for the analysis.\n(§3) Seven hours after receiving the second injection, mice were sacrificed and liver and blood samples were taken for analysis.\nA portion of the liver lobes of each mouse was fixed in 4% buffered paraformaldehyde, dehydrated in increasing concentrations of ethanol, and embedded in paraffin. Then, sections of tissue were cut to […] thickness using a rotary microtome, stained with hematoxylin and eosin, and then analyzed under a microscope."}, "[2]": {"test_system": "liver (acute liver toxicity)", "assay": "plasma aminotransferase activity (ALT, AST) after intragastric dosing", "assay_type": "in vivo, C57BL/6 mice", "conditions": "for AST / ALT: individual mice 1-8; for ALT, Mean / AST, Mean: mean of 8 mice; for hepatotoxicity, overall assessment (ALT, AST, pathohistology): mice, intragastric, summary statement", "description": "This example was performed to determine if acute liver toxicity results from oral administration of 5-hydroxy-7-methyloxindole (CaRafe Drug Innovation, LLC) compared to the known acute liver toxicity produced by acetaminophen.\nAcetaminophen was acquired from Sigma-Aldrich Corp. (St. Louis, Mo., USA); 5-hydroxy-7-methyloxindole was provided by CaRafe Drug Innovation, LLC (Norristown, Pa., USA) in the form of a powder. […] Based on the efficacy testing performed at Drexel University, 5-hydroxy-7-methyloxindole was suspended in 6% Tween® 20 reagent with vortexing. This procedure provided a crude suspension, but it precipitated after some time, therefore vortexing was repeated prior to each injection. Acetaminophen was prepared in the same vehicle (6% Tween® 20 reagent) using light magnetic stirring.\nTen-week old male C57BL/6 mice were used in all of the experiments. All protocols were approved before study initiation by the Ethics Committee of University of Zagreb School of Medicine (Zagreb, Croatia) and the study was conducted in accordance with accepted standards of humane animal care.\nas §1, §2, §3\nAfter collection, the blood samples were centrifuged, and plasma was separated and stored at −80° C. for 24 h. Activities of ALT (alanine transaminase) and of AST (aspartate transaminase) in plasma were determined using standard laboratory techniques in a clinical diagnostic laboratory."}, "[3]": {"conditions": "higher-dose protocol: two cumulative injections 2.5 h apart, 7 h after second injection"}, "[4]": {"conditions": "lower-dose protocol: acetaminophen 300 mg/kg or 5-hydroxy-7-methyloxindole 324 mg/kg, 7 h"}, "[5]": {"conditions": "5-hydroxy-7-methyloxindole 324 mg/kg intragastric, 7 h"}}, "note": "Where “and” joins values, the source holds several entries; their conditions need not be identical. Equal values may be shown once.", "data": [{"molecule": "Cc1cc(O)cc2c1NC(=O)C2", "note": "[5-hydroxy-7-methyloxindole, 5-Hydroxy-7-methyloxindole]", "values": [{"measurement": "liver injury on pathohistological examination", "setting": "[1]; [3]", "value": "without visible liver injury"}, {"measurement": "liver injury on pathohistological examination", "setting": "[1]; [4]", "value": "no visible sign of liver injury"}, {"measurement": "ALT and AST levels, in words", "setting": "[2]; [3]", "value": "normal or only minimally elevated levels of ALT and AST"}, {"measurement": "AST", "setting": "[2]; 5-hydroxy-7-methyloxindole 324 mg/kg intragastric, 7 h after treatment", "value": "80 U/L (2×) and 60 U/L (2×) and 120 U/L and 330 U/L and 170 U/L and 90 U/L"}, {"measurement": "ALT", "setting": "[2]; 5-hydroxy-7-methyloxindole 324 mg/kg intragastric, 7 h after treatment, 6% Tween 20", "value": "30 U/L (5×) and 20 U/L and 50 U/L (2×)"}, {"measurement": "AST", "setting": "[2]; 5-hydroxy-7-methyloxindole 540 mg/kg total (two 270 mg/kg) intragastric, 7 h after second injection", "value": "60 (2×) and 120 (3×) and 100 and 70 and 110"}, {"measurement": "ALT", "setting": "[2]; 5-hydroxy-7-methyloxindole 540 mg/kg total (two 270 mg/kg, 2.5 h apart) intragastric, 7 h after second injection", "value": "20 (3×) and 30 (3×) and 50 (2×)"}, {"measurement": "ALT and AST levels / liver damage, in words", "setting": "[2]; [4]", "value": "normal or only minimally elevated"}, {"measurement": "ALT, Mean", "setting": "[2]; [5]", "value": 34, "unit": "U/L"}, {"measurement": "AST, Mean", "setting": "[2]; [5]", "value": 124, "unit": "U/L"}, {"measurement": "AST, Mean", "setting": "[2]; 5-hydroxy-7-methyloxindole 540 mg/kg total, 7 h after second injection", "value": 95, "unit": "U/L"}, {"measurement": "ALT, Mean", "setting": "[2]; 5-hydroxy-7-methyloxindole 540 mg/kg total, 7 h after second injection, in U/L", "value": 31.25}, {"measurement": "hepatotoxicity, overall assessment (ALT, AST, pathohistology)", "setting": "[2]; 6% Tween 20", "value": "devoid of hepatotoxic effect"}, {"measurement": "hepatotoxicity, overall assessment (ALT, AST, pathohistology)", "setting": "[2]; 6% Tween 20, listed as 5-Hydroxy-7-methyloxindole", "value": "significantly less hepatotoxicity than acetaminophen"}]}]}
